Patent US20250114371A1, “BIOMARKER AND PATIENT SELECTION IN TREATMENT FOR MYELOFIBROSIS” (GlaxoSmithKline LLC, priority 2021, published 2025)
Where two headings read alike, the source gives them in different places.

How the values were obtained:
[1] = test system: myelofibrosis patients with low platelet counts; assay: Re-analysis of the data from the SIMPLIFY-1 and SIMPLIFY-2 trials by platelet count; type: in vivo, human; conditions: patients whose platelet counts are 150×109 per liter or below
[2] = test system: anemic or thrombocytopenic subjects with myelofibrosis previously treated with ruxolitinib; assay: SIMPLIFY-2 Phase 3 trial, MMB versus best available therapy (BAT); type: in vivo, human; conditions: for Response Ratio (MMB/Control): TI response at week 24, MMB/BAT
From the text: In the SIMPLIFY-2 trial (NCT02101268; GS-US-352-1214), the efficacy and safety of MMB versus best available treatment (BAT) was studied in anemic or thrombocytopenic subjects with myelofibrosis who were previously treated with ruxolitinib (RUX). There was no lower limit for the required baseline platelet count. […] The primary endpoint was a reduction by at least 35% in the spleen volume at 24 weeks compared with baseline.
(§1) The relationship between W24 response and overall survival (OS) was explored in patients randomized to MMB in the SIMPLFY-1 (S1) and SIMPLIFY-2 (S2) trials.
(§2) Responders were defined as follows: • W24 TI response (TI-R): no RBC transfusion within ?12 weeks immediately prior to W24, with Hgb≥8 g/dL • W24 spleen response: ≥35% spleen volume reduction vs baseline (BL) • W24 symptom response: ≥50% reduction in MFSAF total symptom score vs BL
(§3) Survival from baseline was estimated using K-M analysis with descriptive log-rank tests for comparison applied (all p values are descriptive). Hazard ratios were computed using proportional hazard regression. To adjust for the time to response bias, overall survival from W24 was also compared. As patients randomized to the control arm in both studies and crossed over to open label MMB after 24 weeks of randomized treatment, a valid comparison of overall survival with patients randomized to RUX or BAT/RUX vs MMB was not possible, therefore, only the MMB arm was analyzed.
(§4) Based on the findings from the Phase 2 translational biology study we retrospectively analyzed the relationship between serum ferritin, hepcidin and C-reactive protein (CRP) and the W24 TI response rates for patients randomized to MMB and RUX in the S1 study using univariate analyses and multiple logistic regression models. These findings were then independently confirmed in the previously RUX treated patients in S2.

[3] = test system: patients with myelofibrosis naïve to treatment with a JAK inhibitor; assay: SIMPLIFY-1 Phase 3 trial, MMB versus RUX, 24 weeks randomized treatment; type: in vivo, human; conditions: for Response Ratio (MMB/Control): TI response at week 24, MMB/RUX; for 3-year survival: patients randomized to MMB; for Week 24 TI response rate: patients with baseline anemia; for mean ferritin change at W24 from baseline: serum ferritin, irrespective of baseline ferritin
Experimental: In the SIMPLIFY-1 trial (NCT01969838; GS-US-352-0101), the efficacy and safety of MMB versus ruxolitinib (RUX) was studied in patients with myelofibrosis who were naïve to treatment with a JAK inhibitor. Patients (N=432) with high risk or intermediate-2 risk or symptomatic intermediate-1 risk myelofibrosis received 24 weeks of treatment with 200 mg MMB once daily or 20 mg RUX twice a day (or per label), after which all patients could receive open-label momelotinib. […] The primary endpoint was a reduction by at least 35% in the spleen volume at 24 weeks compared with baseline.
as §1, §2, §3, §4

[4] = test system: transfusion-dependent myelofibrosis patients; conditions: Oh et al. 2020, cited from earlier work
[5] = test system: patients with myelofibrosis naïve to treatment with a JAK inhibitor; conditions: Mesa et al., cited from earlier work
[6] = test system: anemic or thrombocytopenic subjects with myelofibrosis previously treated with ruxolitinib; conditions: Harrison et al., cited from earlier work

## Cl.N#CCNC(=O)c1ccc(-c2ccnc(Nc3ccc(N4CCOCC4)cc3)n2)cc1 [MMB, N-(cyanomethyl)-4-(2-(4-morpholinophenylamino)pyrimidin-4-yl)benzamide]
[1]
  reducing spleen size (SSR), improving total symptom scores (TSS), improving transfusion independence rates: effective
  thrombocytopenia: without momelotinib administration causing thrombocytopenia
[2]; MMB symptom (TSS) responders vs TSS nonresponders
  overall survival hazard ratio (HR): 0.67
[2]; baseline ferritin <90 ng/mL
  Response Ratio (MMB/Control): 1.1429
[2]; baseline ferritin ≥90 ng/mL
  Response Ratio (MMB/Control): 3.7949
[2]; all patients randomized to MMB, W24 TI responders vs TI non-responders
  overall survival hazard ratio (HR): 0.57
[3]; MMB W24 spleen responders vs nonresponders
  overall survival hazard ratio (HR): 0.59
[3]; MMB W24 symptom (TSS) responders vs nonresponders
  overall survival hazard ratio (HR): 0.66
[3]; MMB patients with anemia at baseline, W24 TI-R vs nonresponders
  overall survival hazard ratio (HR): 0.32
[3]; MMB vs RUX, irrespective of baseline anemia, platelet count or transfusion status (FIGS. 1-3)
  W24 TI-R rate: higher in patients randomized to MMB vs RUX
[3]; baseline ferritin <90 ng/mL
  Response Ratio (MMB/Control): 1.0843
[3]; baseline ferritin ≥90 ng/mL
  Response Ratio (MMB/Control): 1.7538
[3]; all patients randomized to MMB, W24 TI responders vs TI nonresponders
  overall survival hazard ratio (HR): 0.30
[3]; compared to RUX (FIGS. 12 and 13)
  stabilizing ferritin over time: more effective at stabilizing ferritin over time when compared to RUX
[3]; each ferritin cohort (FIG. 14)
  W24 TI-R by baseline ferritin cohort: superior to RUX for each ferritin cohort
[3]; ferritin levels exceed 650 ng/mL (FIG. 14)
  W24 TI-R by baseline ferritin cohort: nominally better than RUX
[3]; TI nonresponders at W24
  3-year survival: 50%
[3]; TI responders at W24
  3-year survival: 80%
[3]
  Week 24 TI response rate: 45%
  mean ferritin change at W24 from baseline: +13.8 ng/mL
[4]
  hepcidin: acutely and chronically suppresses elevated levels of hepcidin
[4]; listed as momelotinib
  hepcidin: inhibited
[4]; transfusion-dependent myelofibrosis patients
  transfusion dependency: reversed or reduced
[5]; compared to RUX
  transfusion dependence rate: decreased
  transfusion independence rate: increased
  transfusion rate: reduced
[5]; vs RUX, JAKi-naïve patients, 24 weeks
  reduction of spleen size (primary endpoint): noninferior to RUX
[5]; vs RUX
  total symptom score (TSS) response (secondary endpoint): non-inferiority was not demonstrated
[6]; compared to BAT group
  total symptom score (TSS) response: greater
  transfusion dependence: lower
  transfusion independence: higher
  transfusions: fewer
[6]; vs BAT
  reduction of spleen size (primary endpoint): not superior to BAT

## N#CC[C@H](C1CCCC1)n1cc(-c2ncnc3[nH]ccc23)cn1 [RUX, Ruxolitinib, reference compound]
[3]
  Week 24 TI response rate: 26%
  mean ferritin change at W24 from baseline: +226.1 ng/mL
